This is an account of results in US11844801B2, “Oral compositions of MK2 pathway inhibitor for treatment of immune conditions” (priority 2020, dated 2023).

A short description of test [1]: Phase 2a ATI-450 plus MTX in moderate to severe rheumatoid arthritis: clinical activity (DAS28-CRP, ACR20/50/70, joint counts, hsCRP). As to conditions: 50 mg BID plus MTX. In kind it is in vivo, human.
Test [2] relates to IL-6. Nature of the test: Poly(I:C) stimulated IL-6 production in human whole blood. As to conditions: 100 ug/mL, 24 hr. In kind it is cell-based. As to the method:
Human whole blood assays were performed as described above with the exceptions listed below. […] Compounds were serially diluted in 100% DMSO (Sigma-Aldrich, D2650) followed by a 25× dilution into DMEM/10% FBS (Gibco, 11965/26140). After the one-hour incubation with the compounds or vehicle, 20 μL of poly(I:C) (InvivoGen, HMW, tlrl-pic), in DPBS (Gibco, 14190-136) was added for a final concentration of 100 μg/mL to each well except for the no stimulus wells. After twenty-four hours of incubation with poly(I:C), plasma was harvested and assayed for IP10, IFNγ, IL-6, IL-8 and TNF-α using Meso Scale Discovery Technology V-plex human cytokine kits according to the kit protocol.

Test [3] relates to TNF-α. Nature of the test: R848 stimulated TNF-α production in human whole blood. Format: cell-based. The settings on record: R848, 0.5 ug/mL, 5 hr. The protocol:
Human whole blood assays were performed as described above with the exceptions listed below. […] Compounds were serially diluted in 100% DMSO (Sigma-Aldrich, D2650) followed by a 10× dilution into RPMI (Gibco, 11875). After the one-hour incubation with the compounds or vehicle, 2 μL of R848 (InvivoGen, tlrl-r848) in RPMI (Gibco, 11875) was added for a final concentration of 0.5 μg/mL to each well except for the no stimulus wells. After five hours of incubation with R848, plasma was harvested and assayed for TNF-α, IL-1β, IL-6 and IL-8 using Meso Scale Discovery Technology V-plex human cytokine kits according to the kit protocol.

Test [4] concerns IL-6. Put plainly: Rat whole blood LPS stimulated IL-6. In kind it is cell-based. As to conditions: 100 ng/mL, 4 hr.
The test system of test [5] is TNF-α. Nature of the test: Porcine whole blood LPS stimulated TNF-α assay. In kind it is cell-based. The settings on record: Sus scrofa, Pig Whole Blood, 10 µg/mL, 4 hr. As to the method: Porcine LPS stimulated TNF-α Assay—Porcine whole blood was collected into heparinized vacutainers then transferred into conical tubes and shipped overnight on wet ice. Porcine whole blood was aliquoted (160 μL/well) into round bottom 96 well tissue culture plates. Compounds were serially diluted in 100% DMSO (Sigma-Aldrich, D2650) followed by a 100× dilution into RPMI/10% FBS (Gibco, 11875/26140). The diluted compounds were then added to each plate in duplicate 20 μL aliquots for final concentrations ranging from 10 μM to 1 pM. DMSO final concentration was 0.1%. After a one-hour incubation at 37° C. with 5% CO2, 20 μL of LPS (Sigma-Aldrich, L2630), in RPMI/10% FBS (Gibco, 11875/26140) was added for a final concentration of 10 μg/mL to each well except for the no stimulus wells. After four hours of incubation with LPS, plasma was harvested by centrifugation at 1,800×g for five minutes. The plasmas were assayed for TNF-α levels using a porcine specific TNF-α Quantikine ELISA kit (R&D, PTA00) according to the kit protocol.

Test [6] deals with IL-17A. Nature of the test: IL-17A production in CD4+ cells cultured under TH17 skewing conditions. Format: cell-based, human. As to the method: CD4+ cells were cultured for 3 days under TH17 skewing conditions (anti-CD3, anti-CD28, anti-IL-4, anti-IFNγ, rIL-6, rIL-23, rTGFβ). On day 3, cells were harvested, washed, re-plated, and treated with compound or DMSO only. […] After 18-20 hours, supernatants were collected and assayed for IL-17A levels using MSD.

Usually IC50 stands for the concentration that inhibits the measured activity by half. The low end stands for greater potency, the high end for weaker potency.

For the compound `Cc1cnc(-c2ccnc(C(C)(C)O)n2)cc1-n1c(C)cc(OCc2ncc(F)cc2F)c(Cl)c1=O` (single isomer, unassigned) [ATI-450, 3-chloro-4-((3,5-difluoropyridin-2-yl)methoxy)-2′-(2-(2-hydroxypropan-2-yl)pyrimidin-4-yl)-5′,6-dimethyl-2H-[1,4′-bipyridin]-2-one], the “swollen and tender joint count over time” value in test [1] (84 days) was “sustained decrease in swollen joint count and tender joint count”. In test [1] (through day 84), the “DAS28-CRP change from baseline over time” value is “rapid and sustained onset of efficacy”; the “hsCRP change from baseline over time” value is “rapid and sustained reduction in hsCRP”. The “median reduction from baseline in hsCRP” value in test [1] (throughout the 12 weeks) was greater than 40%. Besides, in test [1] (week 12), the “mean change from baseline in DAS28-CRP (reduction)” value is given as 2.0. In addition, in test [1] (week 12, 15 subjects), the ACR20 response turned out to be 60%, the ACR50 response is reported as 33%, the ACR70 response is reported as 20% and the “proportion of subjects with DAS28-CRP <2.6 (remission)” value came out at 20%. Besides, the “proportion of subjects with DAS28-CRP ≤ 3.2 (low disease activity or remission)” value in test [1] (week 12, 15 subjects) came out at 40%. The compound further yielded an IC50 in test [2] of 13.2 ± 12.8 nM. In test [3], the IC50 is 34.8 ± 5 nM. In test [4], this compound gave an IC50 of 28.3 ± 1.2 nM. The same compound returned an IC50 in test [5] of 7.4 nM. In addition, the “IL-17 production in CD4+ cells” value in test [6] is recorded as “partially inhibits”.
